The source of these data is patent US6703361B2, “Method of treating or preventing Type 1 diabetes by oral administration of insulin” (AutoImmune Inc., priority 1990, dated 2004).

Entries after “also recorded” stand apart in the source; their conditions may differ.

Type in all cases: in vivo
Test [1] has as its system spontaneous diabetes in NOD mice. Kind of test: Effect of feeding porcine insulin on spontaneous diabetes in NOD mice (Example 1). The text has this: NOD (non-obese diabetic mice) were obtained from Taconic Laboratories (Germantown, Mass.) at 4 weeks of age. There were a total of 30 animals in each of the groups mentioned below at the beginning of the experiment. At 4½ weeks of age, animals were orally administered Porcine insulin (Novo Laboratories, Danbury, Conn.). Each animal received two treatments orally twice a week until 9 weeks of age. The mice were fed either saline (control) or 10 micrograms, 100 micrograms, or 1 milligram of Porcine insulin. The animals were fed (gavaged) with an 18 gauge ball-point needle (Popper and Sons, Inc., New Hyde Park, N.Y.). Beginning at 10 weeks the animals were then fed once a week for a total of 33 weeks. Beginning at 12 weeks the urine was tested weekly for the presence of glucose using Glucosuria test tape (Eli Lilly, Indianapolis, Ind.). If an animal tested 3+ or higher on the glucose urine test, a serum sample was taken and blood glucose measured using a glucose analyzer (Beckman). If the blood glucose was 220 or higher, the animals were classified as diabetic and then sacrificed.

For test [2], the system named is insulitis in NOD mice. Kind of test: Preliminary experiments on insulitis in insulin-fed NOD mice. The conditions noted are these: NOD mice fed 1 mg of insulin vs PBS-fed, data not shown. An excerpt: Therefore, oral administration of insulin to NOD mice appeared to be affecting the infiltration of immune system cells into the pancreas and thus halting disease progression by preserving beta cell function.

The test system of test [3] is diabetes in NOD mice. Kind of test: Effect of aerosol administration of insulin on diabetes in NOD mice (Example 4). Particulars: insulin 0 to 1 mg in aerosol form by nebulizer; expected. The procedure: Insulin (0 to 1 mg as in Examples 1 and 2) will be administered to NOD mice as described above in Examples 1 and 2 except in aerosol form by nebulizer.
Test [4] has as its system blood glucose in fasting NOD mice. Kind of test: Glucose post oral insulin in fasting 7 week NOD mice (Example 2). The conditions noted are these: for blood glucose after feeding: 1 mg fed orally, fasting 7 week old NOD mice. The procedure: In order to determine whether any endocrinologic (i.e. direct lowering of blood sugar) effects occurred following the feeding of insulin, 7 week old NOD mice (5 mice per group) were fed 1 mg of porcine insulin or 1 mg of myelin basic protein (obtained from Pel Freez, Rogers, Ark.) as a control protein. Blood glucose was then measured over the next 24 hour period. As a positive control, a separate group of animals were injected subcutaneously with 20 micrograms of Porcine insulin. All animals were kept in the fasting state.

The test system of test [5] is NOD mice suffering from hyperglycemia. Kind of test: Treatment of initial stages of diabetes in NOD mice (Example 5). Particulars: oral and aerosol administration to hyperglycemic NOD mice; expected. The procedure:
Insulin (0 to 1 mg as in Examples 1 and 2) will be administered to NOD mice which are suffering from hyperglycemia in an oral and aerosol form. The treatments will begin by weeks 12-20 of age, by which the serum glucose levels are at hyperglycemic concentrations in a certain percentage of animals prior to onset of diabetes.

Consider Porcine insulin, for which the development of diabetes result in test [1] (NOD mice fed 1 mg insulin orally) is “none of the mice went on to develop diabetes; also recorded: no diabetes developed; also recorded: None of the animals developed diabetes”; in test [1] (NOD mice fed 10 micrograms insulin orally), “diabetes developed”; in test [1] (NOD mice fed 100 micrograms insulin orally), “diabetes developed”. Moreover, the incidence of diabetes result in test [1] (all doses of orally administered insulin tested (10 micrograms, 100 micrograms, 1 mg)) is recorded as “lower incidence of diabetes; also recorded: reduced the numbers of these mice which subsequently went on to develop diabetes”. Also, in test [2], the “inflammatory immune system cells surrounding the pancreas (insulitis)” value is “fewer inflammatory immune system cells surrounding the pancreas”. Further, the “prevention of manifestation of symptoms (hyperglycemia) of Type 1 diabetes” value in test [3] is recorded as “effective in preventing the manifestation of symptoms”. Besides, the “blood glucose after feeding” value in test [4] is recorded as “no drop in the blood glucose”. In addition, the “endocrinologic (metabolic) effects from feeding” value in test [4] (1 mg oral insulin, NOD mice) is recorded as “not a metabolic effect; also recorded: no endocrinologic (metabolic) effects”. In test [4] (20 micrograms porcine insulin injected subcutaneously, fasting NOD mice), the “period over which the glucose decrease persisted” value was 4 h. In addition, the “decrease in glucose level” value in test [4] (20 micrograms porcine insulin injected subcutaneously, fasting NOD mice (positive control)) is “approximately 80 mg %”. Besides, the beta cell function entry in test [5] is given as “preservation of beta cell function”. In addition, in test [5], the serum glucose concentrations entry was “reduction in serum glucose concentrations to near normal levels”.

B1: myelin basic protein (protein, UniProt P02687 1-169, looked up)
Myelin basic protein: AAQKRPSQRSKYLASASTMDHARHGFLPRHRDTGILDSLGRFFGSDRGAPKRGSGKDGHHAARTTHYGSLPQKAQGHRPQDENPVVHFFKNIVTPRTPPPSQGKGRGLSLSRFSWGAEGQKPGFGYGGRASDYKSAHKGLKGHDAQGTLSKIFKLGGRDSRSGSPMARR
notes: myelin basic protein (obtained from Pel Freez) fed as a control protein
Consider B1, for which the “blood glucose after feeding” value in test [4] was “no drop in the blood glucose”.
